Experimental data as given in PubChem BioAssay AID248 (DTP/NCI, 2004).
“And” between values parts separate entries of the source, which are not always exact repeats. Equal entries are not always repeated. Inconclusive results and toxic doses are left out. Cut-off read from the data, not from the text of the source: active = T/C of 150% or more; inactive = T/C below 125%.

Tested on: L1210 leukemia ip in BDF1 mice, survival T/C
Test: NCI In Vivo Anticancer Drug Screen. Data for tumor model L1210 Leukemia (intraperitoneal) in B6D2F1 (BDF1) mice
Settings: endpoint: mean survival time, higher = longer survival
Summary of the method: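 In this screen, tumor-bearing mice given compound are compared to those given vehicle, and their survival values are reported as a treated-to-control quotient.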

[1] = dose: 9.5 mg/kg/injection, schedule: Q01DX001 (ip), vehicle: other
[2] = dose: 19.0 mg/kg/injection, schedule: Q01DX001 (ip), vehicle: other
[3] = dose: 100.0 mg/kg/injection, schedule: Q01DX009 (ip), vehicle: Klucel (hydroxypropylcellulose) (HPC)
[4] = dose: 200.0 mg/kg/injection, schedule: Q01DX009 (ip), vehicle: Klucel (hydroxypropylcellulose) (HPC)
[5] = dose: 400.0 mg/kg/injection, schedule: Q01DX009 (ip), vehicle: Klucel (hydroxypropylcellulose) (HPC)
[6] = dose: 100.0 mg/kg/injection, schedule: Q01DX001 (ip), vehicle: saline
[7] = dose: 200.0 mg/kg/injection, schedule: Q01DX001 (ip), vehicle: saline
[8] = dose: 400.0 mg/kg/injection, schedule: Q01DX001 (ip), vehicle: saline
[9] = dose: 100.0 mg/kg/injection, schedule: Q01DX001 (ip), vehicle: Klucel (hydroxypropylcellulose) (HPC)
[10] = dose: 25.0 mg/kg/injection, schedule: Q01DX009 (ip), vehicle: saline with Tween-80
[11] = dose: 100.0 mg/kg/injection, schedule: Q01DX009 (ip), vehicle: saline with Tween-80
[12] = dose: 100.0 mg/kg/injection, schedule: Q01DX009 (ip), vehicle: saline
[13] = dose: 200.0 mg/kg/injection, schedule: Q01DX009 (ip), vehicle: saline
[14] = dose: 400.0 mg/kg/injection, schedule: Q01DX009 (ip), vehicle: saline

Measured: T/C

CC(C)OP(=O)(OC(C)C)C1=C(P(=O)(OC(C)C)OC(C)C)C(F)(F)C(F)(F)C1(F)F
inactive: [1] 106 % of control | [2] 95 % of control | dose: 38.0 mg/kg/injection, schedule: Q01DX001 (ip), vehicle: other 89 % of control

CCCC[C@H]1C(=O)O[C@H](C)[C@H](NC(=O)c2cccc(NC=O)c2O)C(=O)O[C@@H](C)[C@@H]1OC(=O)CC(C)C
inactive: dose: 0.5 mg/kg/injection, schedule: Q01DX001 (ip), vehicle: carboxymethylcellulose (CMC) 92 % of control | dose: 1.0 mg/kg/injection, schedule: Q01DX001 (ip), vehicle: carboxymethylcellulose (CMC) 101 % of control | dose: 2.0 mg/kg/injection, schedule: Q01DX001 (ip), vehicle: carboxymethylcellulose (CMC) 94 % of control

Cc1ccnc(/C=N/NC(N)=S)c1
inactive: dose: 100.0 mg/kg/injection, schedule: Q04DX002 (ip), vehicle: saline 108 % of control | dose: 200.0 mg/kg/injection, schedule: Q04DX002 (ip), vehicle: saline 86 % of control

COC(=O)N/N=C/c1cccnc1
inactive: [3] 103 % of control | [4] 103 % of control | [5] 111 % of control

CNC(=O)Oc1cccc(N(C)C)c1
inactive: [1] 100 % of control | [2] 98 % of control

CCOC(=O)c1cc(Cl)ccc1O
inactive: dose: 100.0 mg/kg/injection, schedule: Q04DX002 (ip), vehicle: saline with Tween-80 89 % of control | dose: 200.0 mg/kg/injection, schedule: Q04DX002 (ip), vehicle: saline with Tween-80 92 % of control | dose: 400.0 mg/kg/injection, schedule: Q04DX002 (ip), vehicle: saline with Tween-80 92 % of control

O=C(NOCc1cscn1)NC1CCCCC1
inactive: dose: 75.0 mg/kg/injection, schedule: Q01DX001 (ip), vehicle: saline 98 % of control

C=CCNC(=O)Nc1cccc(O)c1
inactive: dose: 100.0 mg/kg/injection, schedule: Q04DX003 (ip), vehicle: saline with Tween-80 100 % of control | dose: 200.0 mg/kg/injection, schedule: Q04DX003 (ip), vehicle: saline with Tween-80 96 % of control | dose: 400.0 mg/kg/injection, schedule: Q04DX003 (ip), vehicle: saline with Tween-80 93 % of control

CN(C)C(=O)C(=O)c1cn(C)c2ccccc12
inactive: dose: 50.0 mg/kg/injection, schedule: Q01DX001 (ip), vehicle: carboxymethylcellulose (CMC) 95 % of control | dose: 100.0 mg/kg/injection, schedule: Q01DX001 (ip), vehicle: carboxymethylcellulose (CMC) 109 % of control | dose: 200.0 mg/kg/injection, schedule: Q01DX001 (ip), vehicle: carboxymethylcellulose (CMC) 93 % of control | dose: 400.0 mg/kg/injection, schedule: Q01DX001 (ip), vehicle: carboxymethylcellulose (CMC) 101 % of control

C=C[Si](C)(OCC)OCC
inactive: [6] 93 % of control | [7] 90 % of control | [8] 101 % of control

CCCCNC(=O)Nc1ccccc1Cl
inactive: [9] 96 % of control | dose: 200.0 mg/kg/injection, schedule: Q01DX001 (ip), vehicle: Klucel (hydroxypropylcellulose) (HPC) 99 % of control | dose: 400.0 mg/kg/injection, schedule: Q01DX001 (ip), vehicle: Klucel (hydroxypropylcellulose) (HPC) 102 % of control

O=C(c1ccccc1)C(SC(=S)OCc1ccccc1)c1ccccc1 (centres undefined)
inactive: [10] 98 % of control | dose: 50.0 mg/kg/injection, schedule: Q01DX009 (ip), vehicle: saline with Tween-80 100 % of control | [11] 96 % of control

CCCCOCCC1CCNCC1
inactive: dose: 12.5 mg/kg/injection, schedule: Q01DX009 (ip), vehicle: saline 97 % of control | dose: 12.5 mg/kg/injection, schedule: Q04DX003 (ip), vehicle: saline 96 % of control | dose: 25.0 mg/kg/injection, schedule: Q01DX009 (ip), vehicle: saline 101 % of control | dose: 25.0 mg/kg/injection, schedule: Q04DX003 (ip), vehicle: saline 97 % of control | dose: 50.0 mg/kg/injection, schedule: Q01DX009 (ip), vehicle: saline 101 % of control | dose: 50.0 mg/kg/injection, schedule: Q04DX003 (ip), vehicle: saline 100 % of control

CC1CC2C(CC1O)C2(C)C (centres undefined)
inactive: [12] 97 % of control | dose: 100.0 mg/kg/injection, schedule: Q04DX003 (ip), vehicle: saline 94 % of control | [13] 101 % of control | dose: 200.0 mg/kg/injection, schedule: Q04DX003 (ip), vehicle: saline 94 % of control | [14] 106 % of control | dose: 400.0 mg/kg/injection, schedule: Q04DX003 (ip), vehicle: saline 91 % of control

O=c1[nH]c(=S)[nH]cc1Cc1cccc2ccccc12
inactive: dose: 25.0 mg/kg/injection, schedule: Q01DX001 (ip), vehicle: Klucel (hydroxypropylcellulose) (HPC) 104 % of control | dose: 50.0 mg/kg/injection, schedule: Q01DX001 (ip), vehicle: Klucel (hydroxypropylcellulose) (HPC) 94 % of control | [9] 92 % of control

CCOC(=O)CCC(NC(=O)Cc1ccc(NC(=O)C(F)(F)F)cc1)C(=O)OCC (centres undefined)
inactive: [3] 105 % of control | [4] 96 % of control | [5] 98 % of control

Cc1ccc(/C=C2\CCC3C(=O)CCCC3C2=O)cc1 (centres undefined)
inactive: [6] 107 % of control | [7] 89 % of control

CSC(C#N)NC(=O)c1ccc([N+](=O)[O-])cc1 (centres undefined)
inactive: dose: 50.0 mg/kg/injection, schedule: Q04DX002 (ip), vehicle: Klucel (hydroxypropylcellulose) (HPC) 98 % of control | dose: 100.0 mg/kg/injection, schedule: Q04DX002 (ip), vehicle: Klucel (hydroxypropylcellulose) (HPC) 97 % of control and 109 % of control | dose: 200.0 mg/kg/injection, schedule: Q04DX002 (ip), vehicle: Klucel (hydroxypropylcellulose) (HPC) 98 % of control and 109 % of control

Cc1[nH]c(=O)[nH]c(=O)c1[N+](=O)[O-]
inactive: [3] 94 % of control | dose: 100.0 mg/kg/injection, schedule: Q04DX003 (ip), vehicle: Klucel (hydroxypropylcellulose) (HPC) 102 % of control | [4] 101 % of control | dose: 200.0 mg/kg/injection, schedule: Q04DX003 (ip), vehicle: Klucel (hydroxypropylcellulose) (HPC) 104 % of control | [5] 87 % of control | dose: 400.0 mg/kg/injection, schedule: Q04DX003 (ip), vehicle: Klucel (hydroxypropylcellulose) (HPC) 102 % of control

O=[N+]([O-])c1cccc(C=Nc2cc([N+](=O)[O-])ccc2O)c1
inactive: [3] 88 % of control | [4] 93 % of control

CC(c1ccccc1)C1CCCCC1 (centres undefined)
inactive: dose: 100.0 mg/kg/injection, schedule: Q01DX001 (ip), vehicle: saline with Tween-80 96 % of control | dose: 200.0 mg/kg/injection, schedule: Q01DX001 (ip), vehicle: saline with Tween-80 96 % of control | dose: 400.0 mg/kg/injection, schedule: Q01DX001 (ip), vehicle: saline with Tween-80 91 % of control

Cc1ccc(S(=O)(=O)OC2C(O)OCC3OC(C)(C)OC32)cc1 (centres undefined)
inactive: [11] 95 % of control | dose: 200.0 mg/kg/injection, schedule: Q01DX009 (ip), vehicle: saline with Tween-80 88 % of control | dose: 400.0 mg/kg/injection, schedule: Q01DX009 (ip), vehicle: saline with Tween-80 88 % of control

C[N+](C)(C)c1ccc(C(=O)[O-])cc1
inactive: dose: 50.0 mg/kg/injection, schedule: Q01DX001 (ip), vehicle: saline 97 % of control | [6] 97 % of control | [7] 97 % of control | [8] 103 % of control

CC(=O)CC(C)=NCCN=C(C)CC(C)=O.[Cu]
inactive: dose: 6.0 mg/kg/injection, schedule: Q01DX009 (ip), vehicle: saline with Tween-80 97 % of control | dose: 12.0 mg/kg/injection, schedule: Q01DX009 (ip), vehicle: saline with Tween-80 98 % of control | dose: 12.5 mg/kg/injection, schedule: Q01DX001 (ip), vehicle: saline with Tween-80 94 % of control | dose: 12.5 mg/kg/injection, schedule: Q04DX003 (ip), vehicle: saline with Tween-80 93 % of control | dose: 25.0 mg/kg/injection, schedule: Q01DX001 (ip), vehicle: saline with Tween-80 91 % of control | [10] 101 % of control | dose: 25.0 mg/kg/injection, schedule: Q04DX003 (ip), vehicle: saline with Tween-80 100 % of control | dose: 50.0 mg/kg/injection, schedule: Q01DX001 (ip), vehicle: saline with Tween-80 91 % of control | dose: 50.0 mg/kg/injection, schedule: Q04DX003 (ip), vehicle: saline with Tween-80 88 % of control

CC1CCC2(CC1=O)C(C)CC(=O)C2C(C)C (centres undefined)
inactive: [12] 94 % of control | [13] 102 % of control | [14] 98 % of control

CCCCCCCCOc1ccc(C=Nc2ccc(C)cc2)cc1
inactive: [3] 98 % of control | [4] 104 % of control | [5] 92 % of control
